These results are taken from patent US10668047B2, “Aziridine containing DNA alkylating agents” (priority 2015, dated 2020).

Usually pIC50 stands for the negative decadic logarithm of the IC50, by convention in mol/L.

pIC50: −log10 of the molar value. Like-named read-outs stand apart in the source and are kept apart here.

The test system of data set [1] is H460 non-cell lung cancer human tumor cell line. Kind of data set: In vitro human tumor cell line cytotoxicity (proliferation) assay, AlamarBlue. Type of data set: cell-based. An outline of the steps: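 H460 cells (4×10^3/well) attached for 24 h, then were exposed to compound for 2 hours at 37° C. before washout and 70 hrs further growth in fresh medium. Viable cells were measured by AlamarBlue, and IC50 (50% growth inhibition) was determined relative to media-only control.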
On the technique in general: Alamar Blue is a resazurin reagent that responds to reducing activity.

A short description of data set [2]: MTD determination, administered daily for 5 days (preliminary studies for the H460 xenograft model). It is filed as in vivo, nude mice (nu/nu). Conditions: on the basis of weight loss and behavioral signs, female nude mice. The method, then:
On the basis of the favorable in vitro data for these compounds, their anti-tumor activities in the H460 (NSCLC) human tumor xenograft model were evaluated. H460 cells (lx 10^6) were subcutaneously implanted in the flanks of pathogen-free homozygous female nude mice (nu/nu, Charles River Laboratories). When tumor size reached 100-150 mm^3, animals were randomized to 10 mice per treatment group. All tested compounds were formulated in 5% DMSO, 5% Tween 80 in D5W. The doses of all the compounds were chosen on the basis of preliminary studies to define the MTD of each compound when administered daily for 5 days. On the basis of weight loss and behavioral signs, the MTDs of TH2565 and TH2566 were determined to be 2 mg/kg, respectively. The comparative tumor volume reductions for certain compounds are graphically illustrated in FIGS. 1A-1C.

The mark [3] stands for this setting: Homo sapiens, NCI-H460, H460 cells, under air, 2 hrs exposure, wash, then 70 hrs growth, read-out: IC50 (air).
Where [4] appears, read: Homo sapiens, NCI-H460, H460 cells, under nitrogen, 2 hrs exposure, wash, then 70 hrs growth, read-out: IC50 (N2).

On to `CC(OP(=O)(N1CC1)N1CC1)c1ccc([N+](=O)[O-])cc1` (single isomer, unassigned) [compound 2565], for which the pIC50 in data set [1] (Homo sapiens, NCI-H460, read-out: IC50 (N2), H460 cells, under nitrogen, 2 hrs exposure, wash, then 70 hrs growth) is 7.00; in data set [1] (Homo sapiens, NCI-H460, read-out: IC50 (air), H460 cells, under air, 2 hrs exposure, wash, then 70 hrs growth), 4.74. This molecule registered an MTD at 5 days in data set [2] (nude (nu/nu), mouse, in vivo) of 2 mg/kg.

Regarding `CC(C)C(OP(=O)(N1CC1)N1CC1)c1ncc([N+](=O)[O-])n1C` (centres unmarked) [compound 2518], the pIC50 in data set [1] (setting [3]) is 3.38; in data set [1] (setting [4]), 6.22.

As to `Cn1c([N+](=O)[O-])cnc1C(OP(=O)(N1CC1)N1CC1)C(c1ccccc1)c1ccccc1` (centres unmarked) [compound 2640], the pIC50 was 4.08 in data set [1] (setting [3]) and 5.96 in data set [1] (setting [4]).

`COc1ccc(COP(=O)(N2CC2)N2CC2)c([N+](=O)[O-])c1` [compound 2589]: the pIC50 is 5.02 in data set [1] (setting [3]) and 7.00 in data set [1] (setting [4]).

Regarding `CC(OP(=O)(N1CC1)N1CC1)c1cc(N2CCN(C)CC2)c([N+](=O)[O-])cc1F` (centres unmarked) [compound 2732], the pIC50 was 4.64 in data set [1] (setting [3]) and 6.70 in data set [1] (setting [4]).

As for `Cc1cc([N+](=O)[O-])ccc1C(C)OP(=O)(N1CC1)N1CC1` (centres unmarked) [compound 2611], the pIC50 was 4.85 in data set [1] (setting [3]) and 6.70 in data set [1] (setting [4]).

Take `CC(OP(=O)(N1CC1)N1CC1)c1ccc([N+](=O)[O-])c(N2CCCCC2)c1` (centres unmarked) [compound 2696]: the pIC50 in data set [1] (setting [3]) was 3.51; in data set [1] (setting [4]), 5.13.

As to `Cc1ccccc1-c1cc(C(C)OP(=O)(N2CC2)N2CC2)ccc1[N+](=O)[O-]` (centres unmarked) [compound 2800], the pIC50 was 4.52 in data set [1] (setting [3]) and 5.89 in data set [1] (setting [4]).

On to `CCCCC(CCCC)C(OP(=O)(N1CC1)N1CC1)c1ncc([N+](=O)[O-])n1C` (centres unmarked) [compound 2645], for which the results for the pIC50 in data set [1] (setting [3]) and in data set [1] (setting [4]) were 4.52 and 5.80, respectively.

For `Cc1ccc(-c2cc(C(C)OP(=O)(N3CC3)N3CC3)ccc2[N+](=O)[O-])cc1` (centres unmarked) [compound 2789], the negative logarithm of the IC50 (pIC50) was 4.44 in data set [1] (setting [3]) and 5.62 in data set [1] (setting [4]).

Regarding `CC(OP(=O)(N1CC1)N1CC1)c1ccc([N+](=O)[O-])c(-c2cn(COC(=O)C(C)(C)C)nn2)c1` (centres unmarked) [compound 2793], the pIC50 in data set [1] (setting [3]) is 5.40; in data set [1] (setting [4]), 6.40.

For `CC(OP(=O)(N1CC1)N1CC1)c1ccc([N+](=O)[O-])c(-n2c(N)nc3ccccc32)c1` (centres unmarked) [compound 2798], the values for the pIC50 in data set [1] (setting [3]) and in data set [1] (setting [4]) were 4.49 and 6.22, respectively.

For the molecule `CC(OP(=O)(N1CC1)N1CC1)c1ccc([N+](=O)[O-])c(N2CCN(C(C)C)CC2)c1` (centres unmarked) [compound 2751], the pIC50 in data set [1] (setting [3]) was 4.44; in data set [1] (setting [4]), 5.77.

With `CC(OP(=O)(N1CC1)N1CC1)c1ccc([N+](=O)[O-])c(-n2cnc(C(C)(C)C)c2)c1` (centres unmarked) [compound 2759], the pIC50 is 4.00 in data set [1] (setting [3]) and 6.40 in data set [1] (setting [4]).

As to `CC(OP(=O)(N1CC1)N1CC1)c1cc(-n2cnc3ccccc32)c([N+](=O)[O-])cc1F` (centres unmarked) [compound 2744], the pIC50 was 5.57 in data set [1] (setting [3]) and 7.30 in data set [1] (setting [4]).

`Cn1c([N+](=O)[O-])cnc1C(OP(=O)(N1CC1)N1CC1)c1ccccc1` (centres unmarked) [compound 2542]: the values for the pIC50 in data set [1] (setting [3]) and in data set [1] (setting [4]) were 5.47 and 5.82, respectively.

On to `CC(OP(=O)(N1CC1)N1CC1)c1ccc([N+](=O)[O-])c(-n2ccc3ccccc32)c1` (centres unmarked) [compound 2734], for which the pIC50 was 5.60 in data set [1] (setting [3]) and 5.80 in data set [1] (setting [4]).

For `Cn1c([N+](=O)[O-])nc(-c2ccco2)c1COP(=O)(N1CC1)N1CC1` [compound 2141], the pIC50 in data set [1] (setting [3]) was 6.30; in data set [1] (setting [4]) it was 7.10.

For the molecule `Cc1nccn1-c1cc(C(C)OP(=O)(N2CC2)N2CC2)ccc1[N+](=O)[O-]` (centres unmarked) [compound 2738], the pIC50 in data set [1] (setting [3]) is 4.70; in data set [1] (setting [4]), 6.70.

For the molecule `CC(OP(=O)(N1CC1)N1CC1)c1ccc([N+](=O)[O-])c(-c2cn(-c3ccc(F)cc3)nn2)c1` (centres unmarked) [compound 2806], the pIC50 in data set [1] (setting [3]) was 5.27; in data set [1] (setting [4]) it was 6.52.

With `Cn1c([N+](=O)[O-])nc(-c2sc(Br)c(Br)c2Br)c1COP(=O)(N1CC1)N1CC1` [compound 2523], the results for the pIC50 in data set [1] (setting [3]) and in data set [1] (setting [4]) were 6.40 and 7.70, respectively.

For the molecule `Cn1c([N+](=O)[O-])cnc1C(OP(=O)(N1CC1)N1CC1)C(C)(C)C` (centres unmarked) [compound 2535], the pIC50 in data set [1] (setting [3]) was 3.30; in data set [1] (setting [4]) it was 4.59.

Take `C=Cc1nc([N+](=O)[O-])n(C)c1COP(=O)(N1CC1)N1CC1` [compound 2129]: the figures for the pIC50 in data set [1] (setting [3]) and in data set [1] (setting [4]) were 6.15 and 7.10, respectively.

As for `CCc1nc([N+](=O)[O-])n(C)c1COP(=O)(N1CC1)N1CC1` [compound 2119], the pIC50 in data set [1] (setting [3]) is 6.05; in data set [1] (setting [4]) it was 7.52.

`O=[N+]([O-])c1ccc(COP(=O)(N2CC2)N2CC2)c(Cl)c1` [compound 2576]: the pIC50 was 5.74 in data set [1] (setting [3]) and 7.00 in data set [1] (setting [4]).

Consider `Cc1cc([N+](=O)[O-])ccc1COP(=O)(N1CC1)N1CC1` [compound 2556], for which the results for the pIC50 in data set [1] (setting [3]) and in data set [1] (setting [4]) were 4.77 and 6.15, respectively.

As for `CC(OP(=O)(N1CC1)N1CC1)c1ccc([N+](=O)[O-])c(Nc2ccccc2)c1` (centres unmarked) [compound 2693], the pIC50 in data set [1] (setting [3]) was 5.72; in data set [1] (setting [4]), 6.40.

Take `Cc1cc(C(C)OP(=O)(N2CC2)N2CC2)ccc1[N+](=O)[O-]` (centres unmarked) [compound 2672]: the pIC50 is 3.74 in data set [1] (setting [3]) and 5.51 in data set [1] (setting [4]).

Consider `CC(OP(=O)(N1CC1)N1CC1)c1ccc([N+](=O)[O-])c(NC2CC2)c1` (centres unmarked) [compound 2687], for which the pIC50 in data set [1] (setting [3]) is 4.82; in data set [1] (setting [4]), 5.66.

In the case of `CC(OP(=O)(N1CC1)N1CC1)c1ccc([N+](=O)[O-])cc1` (single isomer, unassigned) [compound 2566], the negative-log IC50 (pIC50) in data set [1] (read-out: IC50 (N2), H460 cells, under nitrogen, 2 hrs exposure, wash, then 70 hrs growth) is 7.00; in data set [1] (read-out: IC50 (air), H460 cells, under air, 2 hrs exposure, wash, then 70 hrs growth), 4.64. This molecule also gave an MTD in data set [2] of 2 mg/kg.

For the molecule `CC(OP(=O)(N1CC1)N1CC1)c1ccc([N+](=O)[O-])c(-c2cccc(C(F)(F)F)c2)c1` (centres unmarked) [compound 2802], the pIC50 in data set [1] (setting [3]) is 4.66; in data set [1] (setting [4]), 5.55.

Take `CC(OP(=O)(N1CC1)N1CC1)c1cc(-n2ccnc2)c([N+](=O)[O-])cc1F` (centres unmarked) [compound 2731]: the figures for the pIC50 in data set [1] (setting [3]) and in data set [1] (setting [4]) were 4.89 and 7.00, respectively.

`CC(OP(=O)(N1CC1)N1CC1)c1ccc([N+](=O)[O-])c(N)c1` (centres unmarked) [compound 2692]: the pIC50 was 5.21 in data set [1] (setting [3]) and 5.57 in data set [1] (setting [4]).

Regarding `Cn1c(C(OP(=O)(N2CC2)N2CC2)C(F)(F)F)cnc1[N+](=O)[O-]` (centres unmarked) [compound 2118], the pIC50 in data set [1] (setting [3]) is 5.21; in data set [1] (setting [4]) it was 8.00.

`CCC(CC)C(OP(=O)(N1CC1)N1CC1)c1ncc([N+](=O)[O-])n1C` (centres unmarked) [compound 2609]: the pIC50 in data set [1] (setting [3]) is 3.43; in data set [1] (setting [4]), 6.40.

As for `CC(OP(=O)(N1CC1)N1CC1)c1ccc([N+](=O)[O-])c(NS(C)(=O)=O)c1` (centres unmarked) [compound 2726], the pIC50 in data set [1] (setting [3]) was 4.72; in data set [1] (setting [4]), 6.70.

For `CC(OP(=O)(N1CC1)N1CC1)c1ccc([N+](=O)[O-])c(-n2ccnc2-c2ccccc2)c1` (centres unmarked) [compound 2766], the pIC50 in data set [1] (setting [3]) is 5.32; in data set [1] (setting [4]), 6.15.

For `CC(OP(=O)(N1CC1)N1CC1)c1cc(-n2cncn2)c([N+](=O)[O-])cc1F` (centres unmarked) [compound 2733], the pIC50 in data set [1] (setting [3]) is 5.55; in data set [1] (setting [4]) it was 7.52.

As for `CC(OP(=O)(N1CC1)N1CC1)c1ccc([N+](=O)[O-])c(-n2cnc(-c3ccccc3)c2)c1` (centres unmarked) [compound 2749], the figures for the pIC50 in data set [1] (setting [3]) and in data set [1] (setting [4]) were 5.52 and 7.00, respectively.
